# Values of other authors, collected in paper PMC9546217, “Exploring novel nitrofuranyl sulfonohydrazides as anti‐Leishmania and anti‐cancer agents: Synthesis, in vitro efficacy and hit identification” (Chemical Biology & Drug Design, 2022).
# Test system: Staphylococcus aureus (ATCC 25923)
# Set-up: method as in Alsaeedi et al., [2015]
# Settings: diffusion method; ref Alsaeedi et al., [2015]; cited from earlier work
smiles,measurement,value
"Cc1ccc(S(=O)(=O)N/N=C/c2ccc([N+](=O)[O-])o2)cc1 [2c, (E)-4-Methyl-N'-[(5-nitrofuran-2-yl)methylene]benzenesulfonohydrazide]",antimicrobial activity (inhibition zone),no activity
